Data set [1] relates to human PWS fibroblasts. Description: Chromatin immunoprecipitation (ChIP-qPCR) of H3K9me2/H3K9me3. Format: cell-based. The procedure:
Histone methylations on the SNRPN locus in human fibroblasts were analyzed by chromatin immunoprecipitation assay (ChIP) using the protocol as previously reported (see Fulmer-Smentek et al., Human molecular genetics 10, 645-652 (2001)). ChIP assay was performed using ChIP-IT Express magnetic kit (Active Motif) according to the manufacturer's instructions with modification for the fixation and reverse-crosslinking steps. Briefly, native chromatin was prepared without fixation and enzymatic digestions to average 150-500 bp sized chromatin. 20 μg of chromatin was added to the specific antibodies (2 μg) or species control isotype antibodies for each immunoprecipitation reaction. The antibody-chromatin complexes were bound to protein G magnetic beads for recovering chromatin immunoprecipitates. RNase- and proteinase K-treated DNA was purified using PCR purification columns (Promega). DNA recovery was quantified by real time PCR performed on the LightCycler480 instrument (Roche) using SsoAdvanced Universal SYBR green Supermix (Biorad). Antibodies were anti-rabbit acetylated H3 (Millipore 06-599), anti-mouse monoclonal Histone H3 dimethyl K9 (Abcam 1220) and Histone H3 trimethyl K9 (Millipore, 07-442) antibodies. qPCR reactions were performed with the following cycling parameters: at 95° C./5 min followed by 40 cycles of 95° C./30 sec, 60° C./60 sec. Data was normalized to the total input.

The subject of data set [2] is human PWS fibroblasts. The data set is described as follows: Western blot of SNRPN protein in human PWS fibroblasts. Format: cell-based. The settings on record: 4 μM, 72 hr.
The subject of the next data set is several cell lines. The following applies: cited from earlier work.
A further data set concerns m+/pΔS-U mice. The data set is described as follows: RNA and protein expression in PWS mouse tissues. It is filed as in vivo. The procedure:
For testing long lasting drug effects, the 6 week-old m^S-EGFP/p^+ mice were treated daily by i.p. injection for seven consecutive days.
Western blot analysis was performed as previously described by Wang, et al., Molecular Autism 5, 30 (2014). Briefly, total protein was extracted from collected tissues (liver and brain) using modified RIPA buffer (1× PBS, 1% Triton X-100, 0.1% SDS, 2 mM EDTA, and protease inhibitors). SDS-PAGE resolved 25 μg of total proteins and they were transferred to polyvinylidene difluoride (PVDF) membranes. The PVDF membranes were blocked with BLOTTO (5% skim milk and 0.1% Tween-20 in 1× TBS buffer), and incubated with primary target antibodies, rabbit anti-Snrpn (Protein Tech, cat. no. 11070-1-AP) at 1:400, and rabbit anti-Ube3a (Bethyl Lab, cat. no. A300-352A-T) at 1:1,000 working concentration in BLOTTO at 4° C. overnight. The next day, following incubation with horseradish peroxidase-conjugated secondary antibodies, the membranes were incubated with a Pierce chemiluminescent substrate and exposed to X-ray film or imaged by AI600 (GE Healthcare Life Science).
For reverse-transcription PCR (RT-PCR) and quantitative real time RT-PCR (qRT-PCR), first total RNA was extracted from the fibroblasts and/or collected tissues (liver and brain) using Direct-zol RNA Miniprep kit (Zymo Research cat. no. R2070). 2 μg of total RNA was directly used for single strand cDNA synthesis with Superscript III reverse transcriptase (Invitrogen cat. no. 18080-093) according to the manufacturer's protocols. The conditions for RT-PCR were 95° C./5 min, 35-40 cycles of 95° C./30 sec, 56-60° C./60 sec, 72° C./60 sec. Quantification of target gene expression was performed in a LightCycler480 instrument (Roche) using SsoAdvanced Universal SYBR green Supermix (Biorad cat. no. 172-5271) according to the manufacturer's instructions. See Table 4 for primer sequences and conditions used for experiments for RT-PCR, qRT-PCR, bisulfite genomic sequencing, ChIP-qPCR, and chromatin accessibility assay.

A further data set concerns the target T1, G9a (Mus musculus, UniProt Q9Z148).
T1 construct: from tissue
T1 sequence (Q9Z148 1-1263): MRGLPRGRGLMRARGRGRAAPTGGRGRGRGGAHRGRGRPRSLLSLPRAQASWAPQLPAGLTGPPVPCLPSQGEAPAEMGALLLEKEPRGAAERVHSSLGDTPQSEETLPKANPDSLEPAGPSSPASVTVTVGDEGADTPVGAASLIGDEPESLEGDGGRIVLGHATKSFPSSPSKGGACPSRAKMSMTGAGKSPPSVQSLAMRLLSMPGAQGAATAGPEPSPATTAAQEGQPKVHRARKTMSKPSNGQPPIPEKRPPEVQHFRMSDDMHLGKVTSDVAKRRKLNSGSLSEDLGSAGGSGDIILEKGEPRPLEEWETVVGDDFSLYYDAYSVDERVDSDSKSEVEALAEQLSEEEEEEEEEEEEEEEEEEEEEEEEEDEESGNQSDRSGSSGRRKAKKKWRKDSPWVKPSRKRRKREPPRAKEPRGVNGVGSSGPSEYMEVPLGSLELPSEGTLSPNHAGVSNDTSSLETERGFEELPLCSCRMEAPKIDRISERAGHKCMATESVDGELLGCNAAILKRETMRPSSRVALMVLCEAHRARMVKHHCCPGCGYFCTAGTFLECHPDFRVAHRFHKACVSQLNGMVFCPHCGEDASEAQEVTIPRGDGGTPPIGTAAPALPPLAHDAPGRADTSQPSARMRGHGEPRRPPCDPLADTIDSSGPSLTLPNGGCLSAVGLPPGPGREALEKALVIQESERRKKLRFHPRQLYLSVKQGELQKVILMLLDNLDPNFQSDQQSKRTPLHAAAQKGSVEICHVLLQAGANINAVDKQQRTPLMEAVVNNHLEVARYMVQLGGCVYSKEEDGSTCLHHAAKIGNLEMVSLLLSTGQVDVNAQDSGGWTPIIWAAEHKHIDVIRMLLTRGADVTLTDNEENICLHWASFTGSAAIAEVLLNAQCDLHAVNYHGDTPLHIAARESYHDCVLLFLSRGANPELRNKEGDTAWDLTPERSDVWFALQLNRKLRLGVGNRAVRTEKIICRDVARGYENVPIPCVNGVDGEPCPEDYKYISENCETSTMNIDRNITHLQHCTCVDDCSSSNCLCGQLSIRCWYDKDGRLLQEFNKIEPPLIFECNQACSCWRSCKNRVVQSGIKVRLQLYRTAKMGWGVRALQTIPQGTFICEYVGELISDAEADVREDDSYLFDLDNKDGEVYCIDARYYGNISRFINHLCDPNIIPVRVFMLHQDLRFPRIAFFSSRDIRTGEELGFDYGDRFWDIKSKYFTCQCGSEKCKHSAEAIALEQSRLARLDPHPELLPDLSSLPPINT
The settings on record: single dose of 5 mg/kg i.p.; cited from earlier work.

The conditions of data set [3]: in vivo; cited from earlier work.

Entries after “also recorded” stand apart in the source; their conditions may differ.

In the case of `COc1cc2c(NC3CCN(C(C)C)CC3)nc(C3CCCCC3)nc2cc1OCCCN1CCCC1` [UNC0638], in the data set with human PWS fibroblasts [1], the “H3K9me2 in the region associated with NDN” value was “reduced”. For the same molecule, in the data set on human PWS fibroblasts [1] (ChIP-qPCR, reduction from 17-fold untreated, p<0.05), the “H3K9me2 enriched at the PWS-IC after treatment” value worked out at 3 fold. For the same molecule, the “H3K9me3 at host transcript of SNORD116 after treatment” value with human PWS fibroblasts [1] (ChIP-qPCR, reduction from 24-fold untreated, p<0.05) worked out at 2 fold. Besides, the “H3K9me2 at host transcript of SNORD116 after treatment” value in the data set on human PWS fibroblasts [1] (ChIP-qPCR, reduction from 122-fold untreated, p<0.05) stood at 4 fold. In addition, the “level of H3K9me2 (and H3K9me3) in the PWS-IC” value in the data set on human PWS fibroblasts [1] (in words) was “drastically reduced”. For the same molecule, the “SNRPN protein, of normal levels” value in the data set on human PWS fibroblasts [2] was “approximately 30%”.
With `COc1cc2c(NC3CCN(C(C)C)CC3)nc(N3CCC(F)(F)CC3)nc2cc1OCCCN1CCCC1` [UNC0642], in the data set on several cell lines, the cell toxicity entry is listed as “low cell toxicity”. In the data set with m+/pΔS-U mice (brain), the “level of Ube3a-AS RNA” value is reported as “not affected”. In addition, the “expression of Snrpn and Snord116” value in the data set with m+/pΔS-U mice (brain and liver, around P14, RT-PCR and qRT-PCR) is “readily detectable”. For the same molecule, the Ube3a protein level entry in the data set on m+/pΔS-U mice (whole brain and cerebellum) is reported as “not changed; also recorded: not affected”. Further, the “inhibition of G9a activity in adult mice” value at G9a is on record as “sufficient to inhibit G9a activity”. Besides, in data set [3], the “pharmacokinetic properties such as central nervous system penetration” value is on record as “superior to UNC0638”.

(Values after patent US11278550B2, “Compositions and methods for the treatment of Prader-Willi syndrome” (Duke University, priority 2016, dated 2022).)
